Experimental data reported in patent publication EP0925786A1, “REMEDIES FOR ISCHEMIC DISEASES” (MITSUBISHI CHEMICAL CORPORATION, priority 1996, dated 1998).

Experiments:
[1] = Formation of active metabolite in blood (human sera, HPLC); format: in vitro ADME; details: same procedure
male Wistar rats = assay: Action to improve passive avoidance response after a short period of fore-brain ischemia; format: in vivo, rat; details: dose of 1 mg/kg, po, 30 minutes before 5 minutes of ischemia loading; retrieval test 48 hours after reperfusion
Description: Also, animals treated only with cauterization of vertebral arteries were used as a pseudo-operation group. During ischemia and after reperfusion, body temperature of the animals was maintained by putting them on a heat insulating mat until righting reflex was recovered.
An apparatus composed of a light room (50 x 50 x 50 cm) equipped with a 100 W bulb and a dark room (20 x 14 x 20 cm) was used in the passive avoidance response test. Each of the rats which have been subjected to cauterization of both vertebral arteries 48 hours prior to the test was put into the light room and its latency to enter the dark room was measured to be used as the response latency at the time of acquisition trial. […] When each rat entered the dark room, the guillotine door was closed and the rat was immediately exposed to an electric shock (2.9 mA, 5 seconds) from the floor grid, thus completing the acquisition trial. Subsequently, 5 minutes of ischemia loading (occlusion of both common carotid arteries) was carried out under ether anesthesia, and retrieval test was carried out 48 hours after reperfusion. […] Presence or absence of the action to improve passive avoidance response was judged by comparing response latencies of the acquisition trial and retrieval test. Each drug to be tested was orally administered 30 minutes before the ischemia loading.

[2] = Formation of active metabolite in blood (dog sera, HPLC); format: in vitro ADME; details: same procedure
[3] = Formation of active metabolite in blood (rat serum incubation, HPLC); format: in vitro ADME; details: final concentration 100 µM, 5 minutes of incubation at 37°C
Protocol: (2S,3S)-2-Acetoxy-3-((S)-4-methyl-2-phenylsulfonylaminovalerylamino)tetrahydrofuran obtained in Inventive Example 2 was dissolved in acetonitrile and added to rat serum to a final concentration of 100 µM. After 5 minutes of incubation at 37°C, this was mixed with acetonitrile and centrifuged and then the thus obtained supernatant fluid was checked by HPLC. It was found as the result that a 97% portion of the thus added (2S,3S)-2-acetoxy-3-((S)-4-methyl-2-phenylsulfonylaminovalerylamino)-tetrahydrofuran was hydrolyzed and converted into its active metabolite (3S)-3-((S)-4-methyl-2-phenylsulfonylaminovalerylamino)-2-tetrahydrofuranol (compound of Inventive Example 1).
HPLC was carried out under the following conditions. • Column: Nucleosil 100 5C18 4.6 x 250 mm (manufactured by Nargel) • Column temperature: 50°C • Mobile phase: CH3CN:H2O:PIC A Low UV (manufactured by Waters) 22:78:1 • Flow rate: 1 ml/min • Detection wave length: UV 222 nm

in vivo = details: both sexes, SD, rat, po
m-Calpain = molecular target: T1, m-Calpain (Rattus norvegicus, UniProt Q07009); assay: Measurement of inhibitory activity against calpain; format: biochemical; details: m-Calpain purified from rat brain
T1 construct: m-Calpain was purified from rat brain; from tissue; host or cells: rat brain
T1 sequence (Q07009 20-700 limits assumed): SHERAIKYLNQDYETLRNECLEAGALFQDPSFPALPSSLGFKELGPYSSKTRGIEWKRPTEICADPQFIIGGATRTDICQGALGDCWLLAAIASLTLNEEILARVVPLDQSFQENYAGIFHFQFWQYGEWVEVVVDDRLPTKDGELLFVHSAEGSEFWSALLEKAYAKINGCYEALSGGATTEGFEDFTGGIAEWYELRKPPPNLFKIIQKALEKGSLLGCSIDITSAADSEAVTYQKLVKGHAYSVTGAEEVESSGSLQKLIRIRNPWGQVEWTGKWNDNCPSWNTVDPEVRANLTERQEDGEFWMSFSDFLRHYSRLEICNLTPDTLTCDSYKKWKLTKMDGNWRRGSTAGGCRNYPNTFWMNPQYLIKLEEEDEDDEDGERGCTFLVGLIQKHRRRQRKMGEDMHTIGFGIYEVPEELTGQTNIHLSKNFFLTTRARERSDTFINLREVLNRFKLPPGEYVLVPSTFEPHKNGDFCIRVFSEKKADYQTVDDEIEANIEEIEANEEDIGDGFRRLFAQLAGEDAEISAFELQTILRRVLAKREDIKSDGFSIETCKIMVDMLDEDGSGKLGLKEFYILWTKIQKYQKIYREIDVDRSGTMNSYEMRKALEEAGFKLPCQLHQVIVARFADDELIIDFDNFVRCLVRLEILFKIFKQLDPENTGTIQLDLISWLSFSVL
T1 sequence (Q64537 1-270 partner): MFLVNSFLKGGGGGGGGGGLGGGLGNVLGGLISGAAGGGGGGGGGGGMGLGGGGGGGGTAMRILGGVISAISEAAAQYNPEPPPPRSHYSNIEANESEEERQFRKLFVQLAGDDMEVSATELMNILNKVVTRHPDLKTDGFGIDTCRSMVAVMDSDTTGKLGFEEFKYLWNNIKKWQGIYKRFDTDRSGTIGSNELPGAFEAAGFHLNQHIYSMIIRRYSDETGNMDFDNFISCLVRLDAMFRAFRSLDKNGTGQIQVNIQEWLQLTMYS
Protocol: m-Calpain was purified from rat brain in accordance with the method described in Journal of Biological Chemistry, vol. 259, p. 3210, 1984, and its inhibitory activity was measured in accordance with the method described in Journal of Biological Chemistry, vol. 259, p. 12489, 1984.

female SD rats = assay: Myocardial infarct size-limiting effect in acute myocardial infarction model of rat; format: in vivo
Protocol: An experiment was performed on female SD rats (14 weeks of age). The rats were lightly anesthetized with ether and a left thoracotomy wag performed. A permanent occlusion was placed around the proximal left coronary artery to produce acute myocardial infarction. Infarct size evaluated in each excised heart at 24 hours after the ligation.
The animals were divided into 2 groups at random, and 10 mg/kg of the compound of Inventive Example 29 (Compound No.. 426 in Table 2) suspended in water with Tween 80 was orally administered in a volume of 1 ml/kg to each animal of one of these groups (drug group) 1 hour before the coronary artery ligation, while the same volume of tap water was administered to the other group (control group). A rat with successful thoracotomy and which survived until 24 hours after the coronary ligation was used as the final evaluation subject. This study was continued until the final number of animals in each group reached 8.
Evaluation of the myocardial infarct size was carried out in the following manner. Each of the excised heart was cut into the slices at 2 mm thick from apex to base, and the sections were stained by incubating them in TTC solution (1%) at 37°C for 20 minutes to confirm necrotic region and non-necrotic region. Thereafter, sectional images of the sections were photographed to carry out image analysis on a computer. The infarction size was expressed as a % value obtained by dividing total area of necrotic area of all sliced sections by total left ventricle area (including septum part and excluding left ventricle cavity).

**Q.** Which “formation of active metabolite” value [1] does the source give for CC(=O)O[C@@H]1OCC[C@@H]1NC(=O)[C@H](CC(C)C)NS(=O)(=O)c1ccccc1 [Inventive Example 2, (2S,3S)-2-acetoxy-3-((S)-4-methyl-2-phenylsulfonylaminovalerylamino)tetrahydrofuran] here?
**A.** the same active metabolite is formed

**Q.** And the “action to improve passive avoidance response” value (male Wistar rats)?
**A.** showed the improving action

**Q.** And the “formation of active metabolite” value [2]?
**A.** the same active metabolite is formed

**Q.** What about the “portion hydrolyzed and converted into its active metabolite” value [3] of the same compound?
**A.** 97%

**Q.** And the LD50 at 7 days (in vivo)?
**A.** > 2000 mg/kg

**Q.** Which IC50 (m-Calpain) does the source give for CCCCCCCCCCCCCCOC(=O)N[C@@H](CC(C)C)C(=O)N[C@H]1CCOC1O (stereo partly drawn) [Inventive Example 3, (3S)-3-((S)-4-methyl-2-tetradecyloxycarbonylaminovalerylamino)-2-tetrahydrofuranol] here?
**A.** 110 nM

**Q.** Which IC50 (m-Calpain) does the source give for CCCCCCCCCCCCCCC(=O)N[C@@H](CC(C)C)C(=O)N[C@H]1CCOC1O (stereo partly drawn) [Inventive Example 8, (3S)-3-((S)-4-methyl-2-pentadecanoylaminovalerylamino)-2-tetrahydrofuranol] here?
**A.** 110 nM

**Q.** With CCCCCCCCCCCCCCCC(=O)N[C@@H](CC(C)C)C(=O)N[C@H]1CCOC1O (stereo partly drawn) [Inventive Example 9, (3S)-3-((S)-2-hexadecanoylamino-4-methylvalerylamino)-2-tetrahydrofuranol] as the compound, how does the IC50 (m-Calpain) read?
**A.** 160 nM

**Q.** Which IC50 (m-Calpain) does the source give for CC(C)C[C@H](NC(=O)c1ccccc1F)C(=O)N[C@H]1CCOC1O (stereo partly drawn) [Inventive Example 10, (3S)-3-{(S)-2-(2-fluorobenzoylamino)-4-methylvalerylamino}-2-tetrahydrofuranol] here?
**A.** 170 nM

**Q.** Which IC50 (m-Calpain) does the source give for Cc1ccc(C(=O)N[C@@H](CC(C)C)C(=O)N[C@H]2CCOC2O)cc1 (stereo partly drawn) [Inventive Example 12, (3S)-3-{(S)-4-methyl-2-(4-methylbenzoylamino)valerylamino}-2-tetrahydrofuranol] here?
**A.** 330 nM

**Q.** For CCCCCCCCCCCCCCCCS(=O)(=O)N[C@@H](CC(C)C)C(=O)N[C@H]1CCOC1O (stereo partly drawn) [Inventive Example 13, (3S)-3-((S)-2-hexadecylsufonylamino-4-methylvalerylamino)-2-tetrahydrofuranol], which IC50 (m-Calpain) is on record?
**A.** 420 nM

**Q.** Which IC50 (m-Calpain) does the source give for COc1ccc(S(=O)(=O)N[C@@H](CC(C)C)C(=O)N[C@H]2CCOC2O)cc1 (stereo partly drawn) [Inventive Example 17, (3S)-3-{(S)-2-(4-methoxyphenylsulfonylamino)-4-methylvalerylamino}-2-tetrahydrofuranol] here?
**A.** 670 nM

**Q.** For CC(C)C[C@H](NS(=O)(=O)c1ccc2ccccc2c1)C(=O)N[C@H]1CCOC1O (stereo partly drawn) [Inventive Example 18, (3S)-3-{(S)-4-methyl-2-(2-naphthylsulfonylamino)valerylamino}-2-tetrahydrofuranol], which IC50 (m-Calpain) is on record?
**A.** 360 nM

**Q.** For CC(C)C[C@H](NS(=O)(=O)c1ccccc1)C(=O)N[C@H]1C(C)COC1O (stereo partly drawn) [Inventive Example 19, (3S)-4-methyl-3-((S)-4-methyl-2-phenylsulfonylaminovalerylamino)-2-tetrahydrofuranol], which IC50 (m-Calpain) is on record?
**A.** 2500 nM

**Q.** Which “action to improve passive avoidance response” value (male Wistar rats) does the source give for CC(=O)O[C@@H]1OCC[C@@H]1NC(=O)[C@H](CC(C)C)NC(=O)c1ccccc1F [Inventive Example 24, (2S,3S)-2-acetoxy-3-{(S)-2-(2-fluorobenzoylamino)-4-methylvalerylamino}tetrahydrofuran] here?
**A.** showed the improving action

**Q.** For CC(=O)O[C@@H]1OCC[C@@H]1NC(=O)[C@H](CC(C)C)NS(=O)(=O)c1c(C)cc(C)cc1C [Inventive Example 29, (2S,3S)-2-acetoxy-3-{(S)-4-methyl-2-(2,4,6-trimethylphenylsulfonylamino)valerylamino}tetrahydrofuran], which infarct size (female SD rats; 10 mg/kg orally 1 hour before coronary artery ligation, 24 hours after ligation, necrotic area / total left ventricle area, control 37.3 ± 3.5%) is on record?
**A.** 25.0 ± 1.7%

**Q.** What about the “infarct size reducing ratio” value (female SD rats; 10 mg/kg orally, based on the control group) of the same compound?
**A.** 33.0%

**Q.** And the “animals died during the thoracotomy” value (female SD rats; drug group 10 mg/kg orally, control group 2)?
**A.** 3

**Q.** And the “animals died within 24 hours after the operation” value (female SD rats; drug group 10 mg/kg orally, control group 9)?
**A.** 10

**Q.** What about the LD50 at 7 days (in vivo) of the same compound?
**A.** > 2000 mg/kg
